These results are taken from patent US6869913B1, “Pyridazin-3-one derivatives, their use and intermediates for their production” (Sumitomo Chemical Company, Limited, priority 1995, dated 2005).

Type in all cases: in vivo
Assay [1] deals with velvetleaf (Abutilon theophrash). As to the kind of experiment: Test Example 2: foliar treatment on upland fields. Further details: key: rating; 4–5 = excellent activity, 3 or lower = insufficient. Particulars: 32 g/ha active ingredient; foliar spray; examined 19 days after application. The text has this:
(§1) The herbicidal activity is excellent when rated at “4” or “5” but insufficient when rated at “3” or lower. The phytotoxicity is no problematic on practical use when rated at “0” or “1” but not allowed when rated at “2” or higher.
(§2) Cylindrical plastic pots of 10 cm in diameter and 10 cm in depth were filled with soil, in which the seeds of barnyardgrass (Echinochloa crus-galli), entireleaf morningglory (Ipomoea hederacea var. integriuscula) and velvetleaf (Abutilon theophrash) were sowed, and the test plants were grown in a greenhouse for 19 days. Each of the test compounds listed below was formulated into an emulsifiable concentrate according to Formulation Example 2, which was diluted with water containing a spreading agent to a prescribed concentration. The dilution was uniformly sprayed over the foliage of the test plants with a sprayer at a volume of 1000 liters per hectare. After the application, the test plants were grown in the greenhouse for 19 days, and the herbicidal activity was examined.

Assay [2] has as its system barnyardgrass (Echinochloa crus-galli). The experiment in a line: Test Example 2: foliar treatment on upland fields. Further details: key: rating; 4–5 = excellent activity, 3 or lower = insufficient. Particulars: 32 g/ha active ingredient; foliar spray; examined 19 days after application.
Excerpt: as §1, §2

Assay [3] relates to entireleaf morningglory (Ipomoea hederacea var. integriuscula). As to the kind of experiment: Test Example 2: foliar treatment on upland fields. Further details: key: rating; 4–5 = excellent activity, 3 or lower = insufficient. Particulars: 32 g/ha active ingredient; foliar spray; examined 19 days after application.
Excerpt: as §1, §2

The test system of assay [4] is barnyardgrass (Echinochloa oryzicola). The experiment in a line: Test Example 4: flooding treatment on paddy fields. Particulars: application amount of active ingredient 250 g/ha, examined 19 days after application, index 0 to 5. As to the method:
Cylindrical plastic pots of 9 cm in diameter and 11 cm in depth were filled with soil, in which the seeds of barnyardgrass (Echinochloa oryzicola) were sowed. These pots were flooded to form a paddy field, and the test plants were grown in a greenhouse for 7 days. Each of the test compounds listed below was formulated into an emulsifiable concentrate according to Formulation Example 2, which was diluted with water to a prescribed concentration. The dilution was applied to the water surface in the pots at a volume of 50 liters per hectare. After the application, the test plants were grown in the greenhouse for 19 days, and the herbicidal activity was examined.

Assay [5] concerns pale smartweed (Polygonum lapathifolium). As to the kind of experiment: Test Example 7: soil surface treatment on upland fields. Particulars: 63 g/ha active ingredient; soil surface spray; examined after 19 days.
Excerpt: as §1
(§3) Plastic pots of 25×18 cm^2 in area and 7 cm in depth were filled with soil, in which the seeds of soybean (Glycine max), corn (Zea mays), common lambsquarters (Chenopodium album), slender amaranth (Amaranthus gracilis), and pale smartweed (Polygonum lapathifolium) were sowed. Each of the test compounds listed below was formulated into an emulsifiable concentrate according to Formulation Example 2, which was diluted with water to a prescribed concentration. The dilution was uniformly sprayed over the soil surface in the pots with a sprayer at a volume of 1000 liters per hectare. After the application, the test plants were grown in a greenhouse for 19 days, and the herbicidal activity and phytotoxicity were examined.

For assay [6], the system named is slender amaranth (Amaranthus gracilis). The description is as above. Particulars: 63 g/ha active ingredient; soil surface spray; examined after 19 days.
Excerpt: as §1, §3

The test system of assay [7] is common lambsquarters (Chenopodium album). Described as above. Particulars: 63 g/ha active ingredient; soil surface spray; examined after 19 days.
Excerpt: as §1, §3

Assay [8] concerns velvetleaf (Abutilon theophrash). As to the kind of experiment: Test Example 1: foliar treatment on upland fields. Particulars: 500 g/ha active ingredient; foliar spray; examined 19 days after application. As to the method: as §2, with “barnyardgrass (Echinochloa crus-galli), entireleaf morningglory” left out
The subject of assay [9] is entireleaf morningglory (Ipomoea hederacea var. integriuscula). The experiment in a line: Test Example 1: foliar treatment on upland fields. Particulars: 500 g/ha active ingredient; foliar spray; examined 19 days after application. As to the method:
as §2, with “barnyardgrass (Echinochloa crus-galli), entireleaf morningglory” left out

The subject of assay [10] is velvetleaf (Abutilon theophrash). As to the kind of experiment: Test Example 3: soil surface treatment on upland fields. Particulars: 500 g/ha active ingredient; soil surface spray; examined after 19 days. As to the method:
(§4) Cylindrical plastic pots of 10 cm in diameter and […] in depth were filled with soil, in which the seeds of […] (Ipomoea hederacea var. integriuscula) and velvetleaf (Abutilon theophrash) were sowed. Each of the test compounds listed below was formulated into an emulsifiable concentrate according to Formulation Example 2, which was diluted with water to a prescribed concentration. The dilution was uniformly sprayed over the soil surface in the pots with a sprayer at a volume of 1000 liters per hectare. After the application, the test plants were grown in a greenhouse for 19 days, and the herbicidal activity was examined.

Assay [11] has as its system entireleaf morningglory (Ipomoea hederacea var. integriuscula). The description is as above. Particulars: 500 g/ha active ingredient; soil surface spray; examined after 19 days. As to the method:
as §4

Assay [12] relates to common lambsquarters (Chenopodium album). As to the kind of experiment: Test Example 5: foliar treatment on upland fields. Particulars: 63 g/ha active ingredient; foliar spray; 18 days after application.
Excerpt: as §1
(§5) Plastic pots of 25×18 cm^2 in area and 7 cm in depth were filled with soil, in which the seeds of soybean (Glycine max), corn (Zea mays), entireleaf morningglory (Ipomoea hederacea var. integriuscula), common cocklebur (Xanthium pensylvanicum), common ragweed (Ambrosia artemisiifolia), and common lambsquarters (Chenopodium album) were sowed, and the test plants were grown for 16 days. Each of the test compounds listed below was formulated into an emulsifiable concentrate according to Formulation Example 2, which was diluted with water to a prescribed concentration. The dilution was uniformly sprayed over the foliage of the test plants with a sprayer at a volume of 1000 liters per hectare. At this time, the unfavorable weeds and crop plants, although their growth state was different depending upon the weed species, were at the 1- to 4-leaf stage, and the plant height was 5 to 20 cm. After 18 days from the application, the herbicidal activity and phytotoxicity were examined. This test was made in a greenhouse over the entire period.

In assay [13] the test system is common cocklebur (Xanthium pensylvanicum). The experiment in a line: Test Example 5: foliar treatment on upland fields. Particulars: 63 g/ha active ingredient; foliar spray; 18 days after application.
Excerpt: as §1, §5

For assay [14], the system named is common ragweed (Ambrosia artemisiifolia). The experiment in a line: Test Example 5: foliar treatment on upland fields. Particulars: 63 g/ha active ingredient; foliar spray; 18 days after application.
Excerpt: as §1, §5

Assay [15] deals with entireleaf morningglory (Ipomoea hederacea var. integriuscula). The experiment in a line: Test Example 5: foliar treatment on upland fields. Particulars: 63 g/ha active ingredient; foliar spray; 18 days after application.
Excerpt: as §1, §5

Assay [16] concerns pale smartweed (Polygonum lapathifolium). As to the kind of experiment: Test Example 6: foliar treatment on upland fields. Particulars: 63 g/ha active ingredient; foliar spray; 25 days after application.
Excerpt: as §1
(§6) Plastic pots of 16×11 cm^2 in are and 7 cm in depth were filled with soil, in which the seeds of wheat (Triticum aestivum), pale smartweed (Polygonum lapathifolium), catchweed bedstraw (Galium aparine), and common chickweed (Stellaria media) were sowed, and the test plants were grown for 29 days. Each of the test compounds listed below was formulated into an emulsifiable concentrate according to Formulation Example 2, which was diluted with water to a prescribed concentration. The dilution was uniformly sprayed over the foliage of the test plants with a sprayer at a volume of 1000 liters per hectare. At this time, the unfavorable weeds and crop plants, although their growth state was different depending upon the weed species, were at the 1- to 4-leaf stage, and the plant height was 5 to 15 cm. After 25 days from the application, the herbicidal activity and phytotoxicity were examined. This test was made in a greenhouse over the entire period.

Assay [17] relates to common chickweed (Stellaria media). The experiment in a line: Test Example 6: foliar treatment on upland fields. Particulars: 63 g/ha active ingredient; foliar spray; 25 days after application.
Excerpt: as §1, §6

In assay [18] the test system is catchweed bedstraw (Galium aparine). As to the kind of experiment: Test Example 6: foliar treatment on upland fields. Particulars: 63 g/ha active ingredient; foliar spray; 25 days after application.
Excerpt: as §1, §6

Molecules are shown by their SMILES.

As to `C#CCN1C(=O)COc2cc(F)c(-n3ncc(C(F)(F)F)cc3=O)cc21` [Compound 2-631, 7-Fluoro-6-(5-trifluoromethyl-3-pyridazinon-2-yl)-4-propargyl-2H-1,4-benzoxazin-3-one], the “Herbicidal activity Velvetleaf” value in [1], in assay [8] and in assay [10] was 5 throughout. For the same compound, the “Herbicidal activity Barnyardgrass” value in assay [2] and in assay [4] was 5 throughout. Further, the “Herbicidal activity Entireleaf morningglory” value in assay [3], in assay [9] and in assay [11] was 5 throughout. Further, the “Herbicidal activity and phytotoxicity Pale smartweed” value in [5] was 5. Moreover, the “Herbicidal activity and phytotoxicity Slender amaranth” value in assay [6] turned out to be 5. Moreover, in assay [7], the “Herbicidal activity and phytotoxicity Common lambsquarters” value came out at 5.
Consider `CCOC(=O)COc1cc(-n2ncc(C(F)(F)F)c(C)c2=O)c(F)cc1Cl` [Compound 1-496, Ethyl 2-chloro-4-fluoro-5-(4-methyl-5-trifluoromethyl-3-pyridazinon-2-yl)phenoxyacetate], for which the “Herbicidal activity and phytotoxicity Common lambsquarters” value in assay [12] came to 5. In [13], the “Herbicidal activity and phytotoxicity Common cocklebur” value amounted to 5. Also, the “Herbicidal activity and phytotoxicity Common ragweed” value in assay [14] was determined as 5. For the same compound, the “Herbicidal activity and phytotoxicity Entireleaf morningglory” value in [15] was found to be 5. Moreover, the “Herbicidal activity Velvetleaf” value in [1], in assay [8] and in assay [10] was 5 throughout. For the same compound, the “Herbicidal activity Barnyardgrass” value in [2] and in assay [4] was 5 throughout. Moreover, the “Herbicidal activity Entireleaf morningglory” value in assay [3], in [9] and in assay [11] was 5 each time. Besides, the “Herbicidal activity and phytotoxicity Pale smartweed” value in [16] is 4. Also, the “Herbicidal activity and phytotoxicity Common chickweed” value in [17] worked out at 4. The “Herbicidal activity and phytotoxicity Catchweed bedstraw” value in [18] stood at 5.
Regarding `C#CCOc1cc(-n2ncc(C(F)(F)F)c(C)c2=O)c(F)cc1Cl` [Compound 1-486, 2-(4-Chloro-2-fluoro-5-propargyloxyphenyl)-4-methyl-5-trifluoromethylpyridazin-3-one], the “Herbicidal activity Velvetleaf” value in assay [1], in assay [8] and in assay [10] was 5 in each case. Also, the entries for the “Herbicidal activity Barnyardgrass” value in assay [2] and in assay [4] were 4 and 5, respectively. The “Herbicidal activity Entireleaf morningglory” value in [3], in assay [9] and in assay [11] was 5 in each case. In addition, in [16], the “Herbicidal activity and phytotoxicity Pale smartweed” value was 5. For the same compound, in [17], the “Herbicidal activity and phytotoxicity Common chickweed” value is 5. Also, in [18], the “Herbicidal activity and phytotoxicity Catchweed bedstraw” value was 5.
Turning to `C#CCN1C(=O)COc2ccc(-n3ncc(C(F)(F)F)c(C)c3=O)cc21` [Compound 2-203, 6-(4-Methyl-5-trifluoromethyl-3-pyridazinon-2-yl)-4-propargyl-2H-1,4-benzoxazin-3-one], the “Herbicidal activity Velvetleaf” value in assay [1], in assay [8] and in assay [10] was 5 in each case. Further, the “Herbicidal activity Barnyardgrass” value in assay [2] came out at 4; in assay [4], 5. For the same compound, the “Herbicidal activity Entireleaf morningglory” value in assay [3], in assay [9] and in [11] was 5 each time. In addition, the “Herbicidal activity and phytotoxicity Pale smartweed” value in assay [5] is 5. For the same compound, in assay [6], the “Herbicidal activity and phytotoxicity Slender amaranth” value is reported as 5. In assay [7], the “Herbicidal activity and phytotoxicity Common lambsquarters” value was 5.
`CCOC(=O)c1cc(-n2ncc(C(F)(F)F)c(C)c2=O)c(F)cc1Cl` [Compound 1-642, Ethyl 2-chloro-4-fluoro-5-(4-methyl-5-trifluoromethyl-3-pyridazinon-2-yl)benzoate]: the “Herbicidal activity Velvetleaf” value in assay [1], in [8] and in [10] was 5 throughout. Moreover, the “Herbicidal activity Barnyardgrass” value in [2] and in [4] was 5 each time. The “Herbicidal activity Entireleaf morningglory” value in assay [3], in assay [9] and in [11] was 5 each time. Besides, the “Herbicidal activity and phytotoxicity Pale smartweed” value in assay [5] was found to be 5. Further, the “Herbicidal activity and phytotoxicity Slender amaranth” value in assay [6] came to 5. The “Herbicidal activity and phytotoxicity Common lambsquarters” value in [7] is on record as 5.
Turning to `C#CCN1C(=O)COc2cc(F)c(-n3ncc(C(F)(F)F)c(C)c3=O)cc21` [Compound 2-251, 7-Fluoro-6-(4-methyl-5-trifluoromethyl-3-pyridazinon-2-yl)-4-propargyl-2H-1,4-benzoxazin-3-one], the “Herbicidal activity Velvetleaf” value in assay [1], in assay [8] and in assay [10] was 5 each time. Further, the “Herbicidal activity Barnyardgrass” value in assay [2] and in assay [4] was 5 throughout. In addition, the “Herbicidal activity Entireleaf morningglory” value in assay [3], in [9] and in assay [11] was 5 throughout.
